Values quoted from earlier work in US20220008839A1, “SEMI-AQUEOUS METHOD FOR EXTRACTING A SUBSTANCE” (Clean Imagineering LLC, priority 2020, published 2022).

Row | solubility in ethyl acetate (ethyl acetate) | water solubility (at 20° C.) | SMILES | solubility in ethanol (an alcohol such as ethanol) | solubility in water
1 |  |  | C=C(C)[C@@H]1CC[C@]2(CO)CC[C@]3(C)[C@H](CC[C@@H]4[C@@]5(C)CC[C@H](O)C(C)(C)[C@@H]5CC[C@]43C)[C@@H]12 [Betulin] | highly soluble | insoluble in water
2 | freely soluble |  | CC(C)=CCC/C(C)=C/C=C/C(C)=C/C=C/C(C)=C/C=C/C=C(C)/C=C/C=C(C)/C=C/C=C(\C)CCC=C(C)C [Lycopene] |  | insoluble in water
3 |  | 86 mg/mL | CCOC(C)=O [ethyl acetate] |  | 
